# Measurements: US20100311683A1, “CYTIDINE ANALOGS FOR TREATMENT OF MYELODYSPLASTIC SYNDROMES” (priority 2007, published 2010)
# Where two headings read alike, the source gives them in different places.
# Test system: MDS patients
smiles,measurement,setting,value
"Nc1ncn([C@@H]2O[C@H](CO)[C@@H](O)[C@H]2O)c(=O)n1 [azacitidine, 4-amino-1-β-D-ribofuranosyl-1,3,5-triazin-2(1H)-one]",Grade 3/4 AE: Febrile neutropenia,"AZA 5-2-2 (75 mg/m2/d), N=50",4 (8) %
same,Grade 3/4 AE: GI hemorrhage,"AZA 5-2-2 (75 mg/m2/d), N=50",1 (2) %
same,Grade 3/4 AE: Hematologic Disorders,"AZA 5-2-2 (75 mg/m2/d), N=50",33 (66) %
same,Grade 3/4 AE: Hemorrhagic Events,"AZA 5-2-2 (75 mg/m2/d), N=50",4 (8) %
same,Grade 3/4 AE: Hemorrhagic anemia,"AZA 5-2-2 (75 mg/m2/d), N=50",0 n (%)
same,Grade 3/4 AE: Infections,"AZA 5-2-2 (75 mg/m2/d), N=50",11 (22) %
same,Grade 3/4 AE: Leukopenia,"AZA 5-2-2 (75 mg/m2/d), N=50",7 (14) %
same,Grade 3/4 AE: Neutropenia,"AZA 5-2-2 (75 mg/m2/d), N=50",21 (42) %
same,Grade 3/4 AE: Pneumonia,"AZA 5-2-2 (75 mg/m2/d), N=50",0%
same,Grade 3/4 AE: Rectal hemorrhage,"AZA 5-2-2 (75 mg/m2/d), N=50",0%
same,Grade 3/4 AE: Thrombocytopenia,"AZA 5-2-2 (75 mg/m2/d), N=50",13 (26) %
same,Grade 3/4 AE: Urinary tract infection,"AZA 5-2-2 (75 mg/m2/d), N=50",0%
same,Grade 3/4 AE: ≥1 Adverse Event,"AZA 5-2-2 (75 mg/m2/d), N=50",42 (84) %
same,onset of IWG-defined HI in Cycle 1,"AZA 5-2-2 (75 mg/m2/d), n=22",9 (41) %
same,onset of IWG-defined HI in Cycle 2,"AZA 5-2-2 (75 mg/m2/d), n=22",9 (41) %
same,onset of IWG-defined HI in Cycle 3,"AZA 5-2-2 (75 mg/m2/d), n=22",1 (5) %
same,onset of IWG-defined HI in Cycle 4,"AZA 5-2-2 (75 mg/m2/d), n=22",0%
same,onset of IWG-defined HI in Cycle 5,"AZA 5-2-2 (75 mg/m2/d), n=22",2 (9) %
same,onset of IWG-defined HI in Cycle 6,"AZA 5-2-2 (75 mg/m2/d), n=22",1 (5) %
same,FAB low-risk patients RBC transfusion independent at baseline who remained independent during the study,AZA 5-2-5 (50 mg/m2/d),80%
same,RBC transfusion-dependent patients who achieved and retained independence at the end of cycle 6,AZA 5-2-5 (50 mg/m2/d),92%
same,evaluable patients RBC transfusion independent at baseline who remained independent during the study,AZA 5-2-5 (50 mg/m2/d),79%
same,mean duration of RBC transfusion independence,AZA 5-2-5 (50 mg/m2/d),138 days
same,onset of HI within the first 3 cycles,AZA 5-2-5 (50 mg/m2/d),88%
same,patients with at least 1 treatment-emergent AE that led to study discontinuation,AZA 5-2-5 (50 mg/m2/d),20%
same,patients with bilineage HI,AZA 5-2-5 (50 mg/m2/d),7%
same,patients with serious AEs,AZA 5-2-5 (50 mg/m2/d),40%
same,Any HI (major and minor),"AZA 5-2-5 (50 mg/m2/d), N=44","23 (52) [37, 68] %"
same,"Erythroid Major HI (IWG 2000), evaluable patients","AZA 5-2-5 (50 mg/m2/d), N=44","17 (39) [24, 55] %"
same,Erythroid Minor HI,"AZA 5-2-5 (50 mg/m2/d), N=44","1 (2) [0.1, 12] %"
same,Neutrophil Major HI,"AZA 5-2-5 (50 mg/m2/d), N=44","4 (9) [40, 100] %"
same,Neutrophil Minor HI,"AZA 5-2-5 (50 mg/m2/d), N=44","0 [0, 8] %"
same,Platelet Major HI,"AZA 5-2-5 (50 mg/m2/d), N=44","8 (18) [8, 33] %"
same,Platelet Minor HI,"AZA 5-2-5 (50 mg/m2/d), N=44","0 [0, 8] %"
same,Grade 3/4 AE: Anemia,"AZA 5-2-5 (50 mg/m2/d), N=48",7 (15) %
same,Grade 3/4 AE: Candida Sepsis,"AZA 5-2-5 (50 mg/m2/d), N=48",0%
same,Grade 3/4 AE: Cellulitis,"AZA 5-2-5 (50 mg/m2/d), N=48",1 (2) %
same,Grade 3/4 AE: Epistaxis,"AZA 5-2-5 (50 mg/m2/d), N=48",0%
same,Grade 3/4 AE: Febrile neutropenia,"AZA 5-2-5 (50 mg/m2/d), N=48",4 (8) %
same,Grade 3/4 AE: GI hemorrhage,"AZA 5-2-5 (50 mg/m2/d), N=48",1 (2) %
same,Grade 3/4 AE: Hematologic Disorders,"AZA 5-2-5 (50 mg/m2/d), N=48",24 (50) %
same,Grade 3/4 AE: Hemorrhagic Events,"AZA 5-2-5 (50 mg/m2/d), N=48",3 (6) %
same,Grade 3/4 AE: Hemorrhagic anemia,"AZA 5-2-5 (50 mg/m2/d), N=48",0 n (%)
same,Grade 3/4 AE: Infections,"AZA 5-2-5 (50 mg/m2/d), N=48",14 (29) %
same,Grade 3/4 AE: Leukopenia,"AZA 5-2-5 (50 mg/m2/d), N=48",4 (8) %
same,Grade 3/4 AE: Neutropenia,"AZA 5-2-5 (50 mg/m2/d), N=48",15 (31) %
same,Grade 3/4 AE: Pneumonia,"AZA 5-2-5 (50 mg/m2/d), N=48",4 (8) %
same,Grade 3/4 AE: Rectal hemorrhage,"AZA 5-2-5 (50 mg/m2/d), N=48",1 (2) %
same,Grade 3/4 AE: Thrombocytopenia,"AZA 5-2-5 (50 mg/m2/d), N=48",7 (15) %
same,Grade 3/4 AE: Urinary tract infection,"AZA 5-2-5 (50 mg/m2/d), N=48",3 (6) %
same,Grade 3/4 AE: ≥1 Adverse Event,"AZA 5-2-5 (50 mg/m2/d), N=48",37 (77) %
same,onset of IWG-defined HI in Cycle 1,"AZA 5-2-5 (50 mg/m2/d), n=24",6 (25) %
same,onset of IWG-defined HI in Cycle 2,"AZA 5-2-5 (50 mg/m2/d), n=24",8 (33) %
same,onset of IWG-defined HI in Cycle 3,"AZA 5-2-5 (50 mg/m2/d), n=24",7 (29) %
same,onset of IWG-defined HI in Cycle 4,"AZA 5-2-5 (50 mg/m2/d), n=24",2 (8) %
same,onset of IWG-defined HI in Cycle 6,"AZA 5-2-5 (50 mg/m2/d), n=24",0%
same,hematologic AE: anemia,all 3 regimens,29%
same,hematologic AE: leukopenia,all 3 regimens,18%
same,hematologic AE: neutropenia,all 3 regimens,38%
same,hematologic AE: thrombocytopenia,all 3 regimens,24%
same,nonhematologic AE: constipation,all 3 regimens,51%
same,nonhematologic AE: fatigue,all 3 regimens,93%
same,nonhematologic AE: injection site erythema,all 3 regimens,55%
same,nonhematologic AE: injection site pain,all 3 regimens,54%
same,nonhematologic AE: nausea,all 3 regimens,55%
same,Grade 3/4 AE: Anemia,"all 3 regimens, N=148",24 (16) %
same,Grade 3/4 AE: Candida Sepsis,"all 3 regimens, N=148",1 (1) %
same,Grade 3/4 AE: Cellulitis,"all 3 regimens, N=148",4 (3) %
same,Grade 3/4 AE: Epistaxis,"all 3 regimens, N=148",1 (1) %
same,Grade 3/4 AE: Febrile neutropenia,"all 3 regimens, N=148",9 (6) %
same,Grade 3/4 AE: GI hemorrhage,"all 3 regimens, N=148",2 (1) %
same,Grade 3/4 AE: Hematologic Disorders,"all 3 regimens, N=148",74 (50) %
same,Grade 3/4 AE: Hemorrhagic Events,"all 3 regimens, N=148",8 (5) %
same,Grade 3/4 AE: Infections,"all 3 regimens, N=148",30 (20) %
same,Grade 3/4 AE: Leukopenia,"all 3 regimens, N=148",15 (10) %
same,Grade 3/4 AE: Neutropenia,"all 3 regimens, N=148",47 (32) %
same,Grade 3/4 AE: Pneumonia,"all 3 regimens, N=148",5 (3) %
same,Grade 3/4 AE: Rectal hemorrhage,"all 3 regimens, N=148",1 (1) %
same,Grade 3/4 AE: Thrombocytopenia,"all 3 regimens, N=148",26 (18) %
same,Grade 3/4 AE: Urinary tract infection,"all 3 regimens, N=148",3 (2) %
same,Grade 3/4 AE: ≥1 Adverse Event,"all 3 regimens, N=148",108 (73) %
same,serious AEs involving GI disorders,"all 3 regimens, n=12",8%
same,serious AEs involving blood or lymphatic system disorders,"all 3 regimens, n=19",13%
same,serious AEs involving infections,"all 3 regimens, n=31",21%
same,patients platelet transfusion independent at baseline who remained independent,each alternative dosing regimen group,≥ 92%
same,patients with trilineage HI,each of the 3 alternative treatment groups (2 patients each),4%
same,platelet transfusion independence in baseline-dependent patients,"five patients (AZA 5-2-2 n=2, AZA 5 n=3)",all of whom achieved transfusion independence
same,tolerability,three alternative dosing regimens,generally well tolerated
